Measurements published in ChEMBL document CHEMBL3046213, “Repellent, insecticidal and phytotoxic activities of isoalantolactone from Inula racemosa” (Crop Prot, 2006).

What was measured:
Triticum aestivum [1] = assay: Phytotoxicity in Triticum aestivum (wheat) assessed as shoot growth at 500 ug/ml pre-soaked for 60 min measured after 72 hr relative to acetone-treated control; type: organism-based; settings: in vivo
Sitophilus oryzae [2] = assay: Repellent activity against Sitophilus oryzae (rice weevil) assessed as settling responses at 50 ug/g preincubated for 12 hr prior to inoculation measured after 24 hr by food preference chamber method (reference value: 49.45 +/- 2.65 %); type: functional
Triticum aestivum [3] = assay: Phytotoxicity in Triticum aestivum (wheat) assessed as root growth at 500 ug/ml pre-soaked for 60 min measured after 120 hr relative to acetone-treated control; type: organism-based; settings: in vivo
Sitophilus oryzae [4] = assay: Insecticidal activity against Sitophilus oryzae (rice weevil) assessed as mortality at 0.05 ug/g after 20 days by food poison technique relative to acetone-treated control; type: functional
Sitophilus oryzae [5] = assay: Insecticidal activity against Sitophilus oryzae (rice weevil) assessed as mortality at 0.05 ug/g after 10 days by food poison technique relative to acetone-treated control; type: functional
Sitophilus oryzae [6] = assay: Insecticidal activity against Sitophilus oryzae (rice weevil) assessed as mortality at 2000 ug/g after 5 days by food poison technique relative to acetone-treated control; type: functional
Sitophilus oryzae [7] = assay: Insecticidal activity against Sitophilus oryzae (rice weevil) assessed as mortality at 1000 ug/g after 5 days by food poison technique relative to acetone-treated control; type: functional
Triticum aestivum [8] = assay: Phytotoxicity in Triticum aestivum (wheat) assessed as root growth at 500 ug/ml pre-soaked for 30 min measured after 120 hr relative to acetone-treated control; type: organism-based; settings: in vivo
Sitophilus oryzae [9] = assay: Insecticidal activity against Sitophilus oryzae (rice weevil) assessed as mortality at 3000 ug/g after 20 days by food poison technique relative to acetone-treated control; type: functional
Triticum aestivum [10] = assay: Phytotoxicity in Triticum aestivum (wheat) assessed as germination rate at 500 ug/ml pre-soaked for 60 min measured after 48 hr relative to acetone-treated control; type: organism-based; settings: in vivo
Sitophilus oryzae [11] = assay: Repellent activity against Sitophilus oryzae (rice weevil) assessed as settling responses at 100 ug/g preincubated for 12 hr prior to inoculation measured after 24 hr by food preference chamber method (reference value: 49.45 +/- 2.65 %); type: functional
Triticum aestivum [12] = assay: Phytotoxicity in Triticum aestivum (wheat) assessed as shoot growth at 500 ug/ml pre-soaked for 60 min measured after 48 hr relative to acetone-treated control; type: organism-based; settings: in vivo
Sitophilus oryzae [13] = assay: Insecticidal activity against Sitophilus oryzae (rice weevil) assessed as mortality at 200 ug/g after 20 days by food poison technique relative to acetone-treated control; type: functional
Sitophilus oryzae [14] = assay: Insecticidal activity against Sitophilus oryzae (rice weevil) assessed as mortality at 600 ug/g after 5 days by food poison technique relative to acetone-treated control; type: functional
Triticum aestivum [15] = assay: Phytotoxicity in Triticum aestivum (wheat) assessed as shoot growth at 500 ug/ml pre-soaked for 30 min measured after 48 hr relative to acetone-treated control; type: organism-based; settings: in vivo
Sitophilus oryzae [16] = assay: Insecticidal activity against Sitophilus oryzae (rice weevil) assessed as mortality at 3000 ug/g after 10 days by food poison technique relative to acetone-treated control; type: functional
Triticum aestivum [17] = assay: Phytotoxicity in Triticum aestivum (wheat) assessed as germination rate at 500 ug/ml pre-soaked for 60 min measured after 96 hr relative to acetone-treated control; type: organism-based; settings: in vivo
Sitophilus oryzae [18] = assay: Insecticidal activity against Sitophilus oryzae (rice weevil) assessed as mortality at 0.05 ug/g after 15 days by food poison technique relative to acetone-treated control; type: functional
Sitophilus oryzae [19] = assay: Insecticidal activity against Sitophilus oryzae (rice weevil) assessed as mortality at 3000 ug/g after 5 days by food poison technique relative to acetone-treated control; type: functional
Triticum aestivum [20] = assay: Phytotoxicity in Triticum aestivum (wheat) assessed as root growth at 500 ug/ml pre-soaked for 30 min measured after 48 hr relative to acetone-treated control; type: organism-based; settings: in vivo
Sitophilus oryzae [21] = assay: Insecticidal activity against Sitophilus oryzae (rice weevil) assessed as mortality at 600 ug/g after 20 days by food poison technique relative to acetone-treated control; type: functional
Triticum aestivum [22] = assay: Phytotoxicity in Triticum aestivum (wheat) assessed as germination rate at 500 ug/ml pre-soaked for 30 min measured after 72 hr relative to acetone-treated control; type: organism-based; settings: in vivo
Triticum aestivum [23] = assay: Phytotoxicity in Triticum aestivum (wheat) assessed as shoot growth at 500 ug/ml pre-soaked for 30 min measured after 96 hr relative to acetone-treated control; type: organism-based; settings: in vivo
Sitophilus oryzae [24] = assay: Insecticidal activity against Sitophilus oryzae (rice weevil) assessed as mortality after 15 days by food poison technique; type: functional
Triticum aestivum [25] = assay: Phytotoxicity in Triticum aestivum (wheat) assessed as germination rate at 500 ug/ml pre-soaked for 60 min measured after 24 hr relative to acetone-treated control; type: organism-based; settings: in vivo
Triticum aestivum [26] = assay: Phytotoxicity in Triticum aestivum (wheat) assessed as root growth at 500 ug/ml pre-soaked for 60 min measured after 96 hr relative to acetone-treated control; type: organism-based; settings: in vivo
Triticum aestivum [27] = assay: Phytotoxicity in Triticum aestivum (wheat) assessed as root growth at 500 ug/ml pre-soaked for 60 min measured after 72 hr relative to acetone-treated control; type: organism-based; settings: in vivo
Sitophilus oryzae [28] = assay: Insecticidal activity against Sitophilus oryzae (rice weevil) assessed as mortality at 400 ug/g after 15 days by food poison technique relative to acetone-treated control; type: functional
Sitophilus oryzae [29] = assay: Insecticidal activity against Sitophilus oryzae (rice weevil) assessed as mortality at 1000 ug/g after 10 days by food poison technique relative to acetone-treated control; type: functional
Triticum aestivum [30] = assay: Phytotoxicity in Triticum aestivum (wheat) assessed as shoot growth at 500 ug/ml pre-soaked for 30 min measured after 72 hr relative to acetone-treated control; type: organism-based; settings: in vivo
Sitophilus oryzae [31] = assay: Insecticidal activity against Sitophilus oryzae (rice weevil) assessed as mortality at 1000 ug/g after 20 days by food poison technique relative to acetone-treated control; type: functional

With C=C1C(=O)O[C@@H]2C[C@@]3(C)CCCC(=C)[C@@H]3C[C@H]12 [ISOALANTOLACTONE] the Activity (Triticum aestivum [1]) was 51.7%, the Activity (Sitophilus oryzae [2]) was 12.87% and the Activity (Triticum aestivum [3]) was 83.9%. The mortality (Sitophilus oryzae [4]) was 100%, the mortality (Sitophilus oryzae [5]) was 100% and the mortality (Sitophilus oryzae [6]) was 76.19%. The mortality (Sitophilus oryzae [7]) was 42.86%, the Activity (Triticum aestivum [8]) was 101.2% and the mortality (Sitophilus oryzae [9]) was 100%. It also gave an Activity (Triticum aestivum [10]) of 76.1%, an Activity (Sitophilus oryzae [11]) of 12.13% and an Activity (Triticum aestivum [12]) of 53.7%. The mortality (Sitophilus oryzae [13]) was 17.95%, the mortality (Sitophilus oryzae [14]) was 33.33% and the Activity (Triticum aestivum [15]) was 100%. For the same compound, the mortality (Sitophilus oryzae [16]) was 100%, the Activity (Triticum aestivum [17]) was 82.5% and the mortality (Sitophilus oryzae [18]) was 100%. It also gave a mortality (Sitophilus oryzae [19]) of 100%, an Activity (Triticum aestivum [20]) of 100.7% and a mortality (Sitophilus oryzae [21]) of 58.97%. It also gave an Activity (Triticum aestivum [22]) of 100%, an Activity (Triticum aestivum [23]) of 96% and an LC50 (Sitophilus oryzae [24]) of 655.31 µg/g. The Activity (Triticum aestivum [25]) was 25%, the Activity (Triticum aestivum [26]) was 76.9% and the Activity (Triticum aestivum [27]) was 63.7%. The mortality (Sitophilus oryzae [28]) was 30.77%, the mortality (Sitophilus oryzae [29]) was 64.28% and the Activity (Triticum aestivum [30]) was 102%. The mortality (Sitophilus oryzae [31]) was 74.36%.
